Source: ChEMBL document CHEMBL3774313, “Natural product-based design, synthesis and biological evaluation of Albiziabioside A derivatives that selectively induce HCT116 cell death” (Eur J Med Chem, 2016)

What was measured:
Format in all cases: functional, cell-based
[1] = Cytotoxicity against mouse J774A1 cells assessed as cell viability after 72 hrs by MTT assay; details: J774.A1, 72 h
[2] = Antiproliferative activity against human HL60 cells assessed as cell viability after 72 hrs by MTT assay; details: HL-60, 72 h
MCF7 = assay: Antiproliferative activity against human MCF7 cells assessed as cell viability after 72 hrs by MTT assay; details: MCF7, 72 h
[3] = Antiproliferative activity against human HCT116 cells assessed as cell viability after 72 hrs by MTT assay; details: HCT-116, 72 h
A549 = assay: Antiproliferative activity against human A549 cells assessed as cell viability after 72 hrs by MTT assay; details: A549, 72 h
HeLa = assay: Antiproliferative activity against human HeLa cells assessed as cell viability after 72 hrs by MTT assay
HepG2 = assay: Antiproliferative activity against human HepG2 cells assessed as cell viability after 72 hrs by MTT assay; details: HepG2, 72 h

## CC(=O)N[C@H]1[C@H](O[C@H]2CC[C@]3(C)[C@H]4CC=C5[C@@H]6CC(C)(C)CC[C@]6(C(=O)O)CC[C@@]5(C)[C@]4(C)CC[C@H]3C2(C)C)O[C@H](CO)[C@@H](O[C@@H]2O[C@H](CO)[C@@H](O)[C@H](O)[C@H]2O)[C@@H]1O[C@H]1O[C@@H](CO)[C@@H](O)[C@@H](O)[C@@H]1O
[1]
  IC50: 0.15 µM

## COc1cccc(/C=C/C(=O)N[C@H]2[C@H](O[C@H]3CC[C@]4(C)[C@H]5CC=C6[C@@H]7CC(C)(C)CC[C@]7(C(=O)O)CC[C@@]6(C)[C@]5(C)CC[C@H]4C3(C)C)O[C@H](CO[C@@H]3OC[C@H](O)[C@H](O)[C@H]3O)[C@@H](O)[C@@H]2O)c1OC
[2]
  IC50: > 50 µM
MCF7
  IC50: > 50 µM
[3]
  IC50: > 50 µM
A549
  IC50: > 50 µM
HeLa
  IC50: > 50 µM
HepG2
  IC50: > 50 µM

## COc1ccc(OC)c(/C=C/C(=O)N[C@H]2[C@H](O[C@H]3CC[C@]4(C)[C@H]5CC=C6[C@@H]7CC(C)(C)CC[C@]7(C(=O)O)CC[C@@]6(C)[C@]5(C)CC[C@H]4C3(C)C)O[C@H](CO[C@@H]3OC[C@H](O)[C@H](O)[C@H]3O)[C@@H](O)[C@@H]2O)c1
[2]
  IC50: > 50 µM
MCF7
  IC50: > 50 µM
[3]
  IC50: > 50 µM
A549
  IC50: > 50 µM
HeLa
  IC50: > 50 µM
HepG2
  IC50: > 50 µM

## O=c1[nH]cc(F)c(=O)[nH]1 [FLUOROURACIL]
[2]
  IC50: 27.4 µM
MCF7
  IC50: 26.1 µM
[3]
  IC50: 38.3 µM
A549
  IC50: > 50 µM
HeLa
  IC50: 26.2 µM
HepG2
  IC50: 49 µM

## CC1(C)CC[C@]2(C(=O)O)CC[C@]3(C)C(=CC[C@@H]4[C@@]5(C)CC[C@H](O[C@@H]6O[C@H](CO[C@@H]7OC[C@H](O)[C@H](O)[C@H]7O)[C@@H](O)[C@H](O)[C@H]6NC(=O)/C=C/c6cccc(F)c6)C(C)(C)[C@@H]5CC[C@]43C)[C@@H]2C1
[2]
  IC50: > 50 µM
MCF7
  IC50: > 50 µM
[3]
  IC50: 8.5 µM
A549
  IC50: 32.8 µM
HeLa
  IC50: 48.4 µM
HepG2
  IC50: > 50 µM

## Cc1cccc(/C=C/C(=O)N[C@H]2[C@H](O[C@H]3CC[C@]4(C)[C@H]5CC=C6[C@@H]7CC(C)(C)CC[C@]7(C(=O)O)CC[C@@]6(C)[C@]5(C)CC[C@H]4C3(C)C)O[C@H](CO[C@@H]3OC[C@H](O)[C@H](O)[C@H]3O)[C@@H](O)[C@@H]2O)c1
[2]
  IC50: > 50 µM
MCF7
  IC50: > 50 µM
[3]
  IC50: > 50 µM
A549
  IC50: > 50 µM
HeLa
  IC50: > 50 µM
HepG2
  IC50: > 50 µM

## COc1ccc(/C=C/C(=O)N[C@H]2[C@H](O[C@H]3CC[C@]4(C)[C@H]5CC=C6[C@@H]7CC(C)(C)CC[C@]7(C(=O)O)CC[C@@]6(C)[C@]5(C)CC[C@H]4C3(C)C)O[C@H](CO[C@@H]3OC[C@H](O)[C@H](O)[C@H]3O)[C@@H](O)[C@@H]2O)cc1OC
[2]
  IC50: > 50 µM
MCF7
  IC50: > 50 µM
[3]
  IC50: > 50 µM
A549
  IC50: > 50 µM
HeLa
  IC50: > 50 µM
HepG2
  IC50: > 50 µM

## CC1(C)CC[C@]2(C(=O)O)CC[C@]3(C)C(=CC[C@@H]4[C@@]5(C)CC[C@H](O[C@@H]6O[C@H](CO[C@@H]7OC[C@H](O)[C@H](O)[C@H]7O)[C@@H](O)[C@H](O)[C@H]6NC(=O)/C=C/c6cccc(Cl)c6)C(C)(C)[C@@H]5CC[C@]43C)[C@@H]2C1
[2]
  IC50: > 50 µM
MCF7
  IC50: > 50 µM
[3]
  IC50: 11.9 µM
A549
  IC50: > 50 µM
HeLa
  IC50: > 50 µM
HepG2
  IC50: > 50 µM

## CC1(C)CC[C@]2(C(=O)O)CC[C@]3(C)C(=CC[C@@H]4[C@@]5(C)CC[C@H](O[C@@H]6O[C@H](CO[C@@H]7OC[C@H](O)[C@H](O)[C@H]7O)[C@@H](O)[C@H](O)[C@H]6NC(=O)/C=C/c6cccc(Br)c6)C(C)(C)[C@@H]5CC[C@]43C)[C@@H]2C1
[2]
  IC50: > 50 µM
MCF7
  IC50: > 50 µM
[3]
  IC50: 10.2 µM
A549
  IC50: > 50 µM
HeLa
  IC50: > 50 µM
HepG2
  IC50: > 50 µM

## Cc1ccc(/C=C/C(=O)N[C@H]2[C@H](O[C@H]3CC[C@]4(C)[C@H]5CC=C6[C@@H]7CC(C)(C)CC[C@]7(C(=O)O)CC[C@@]6(C)[C@]5(C)CC[C@H]4C3(C)C)O[C@H](CO[C@@H]3OC[C@H](O)[C@H](O)[C@H]3O)[C@@H](O)[C@@H]2O)cc1
[2]
  IC50: > 50 µM
MCF7
  IC50: 38.1 µM
[3]
  IC50: 16.3 µM
A549
  IC50: > 50 µM
HeLa
  IC50: > 50 µM
HepG2
  IC50: > 50 µM

## COc1cc(/C=C/C(=O)N[C@H]2[C@H](O[C@H]3CC[C@]4(C)[C@H]5CC=C6[C@@H]7CC(C)(C)CC[C@]7(C(=O)O)CC[C@@]6(C)[C@]5(C)CC[C@H]4C3(C)C)O[C@H](CO[C@@H]3OC[C@H](O)[C@H](O)[C@H]3O)[C@@H](O)[C@@H]2O)cc(OC)c1
[2]
  IC50: > 50 µM
MCF7
  IC50: > 50 µM
[3]
  IC50: > 50 µM
A549
  IC50: > 50 µM
HeLa
  IC50: > 50 µM
HepG2
  IC50: > 50 µM

## COc1ccccc1/C=C/C(=O)N[C@H]1[C@H](O[C@H]2CC[C@]3(C)[C@H]4CC=C5[C@@H]6CC(C)(C)CC[C@]6(C(=O)O)CC[C@@]5(C)[C@]4(C)CC[C@H]3C2(C)C)O[C@H](CO[C@@H]2OC[C@H](O)[C@H](O)[C@H]2O)[C@@H](O)[C@@H]1O
[2]
  IC50: > 50 µM
MCF7
  IC50: > 50 µM
[3]
  IC50: > 50 µM
A549
  IC50: > 50 µM
HeLa
  IC50: > 50 µM
HepG2
  IC50: > 50 µM

## CCOc1ccc(/C=C/C(=O)N[C@H]2[C@H](O[C@H]3CC[C@]4(C)[C@H]5CC=C6[C@@H]7CC(C)(C)CC[C@]7(C(=O)O)CC[C@@]6(C)[C@]5(C)CC[C@H]4C3(C)C)O[C@H](CO[C@@H]3OC[C@H](O)[C@H](O)[C@H]3O)[C@@H](O)[C@@H]2O)cc1
[2]
  IC50: > 50 µM
MCF7
  IC50: > 50 µM
[3]
  IC50: 13 µM
A549
  IC50: > 50 µM
HeLa
  IC50: > 50 µM
HepG2
  IC50: > 50 µM

## CC1(C)CC[C@]2(C(=O)O)CC[C@]3(C)C(=CC[C@@H]4[C@@]5(C)CC[C@H](O[C@@H]6O[C@H](CO[C@@H]7OC[C@H](O)[C@H](O)[C@H]7O)[C@@H](O)[C@H](O)[C@H]6NC(=O)/C=C/c6ccc(F)cc6)C(C)(C)[C@@H]5CC[C@]43C)[C@@H]2C1
[2]
  IC50: > 50 µM
MCF7
  IC50: > 50 µM
[3]
  IC50: 37.5 µM
A549
  IC50: > 50 µM
HeLa
  IC50: > 50 µM
HepG2
  IC50: > 50 µM

## CC1(C)CC[C@]2(C(=O)O)CC[C@]3(C)C(=CC[C@@H]4[C@@]5(C)CC[C@H](O[C@@H]6O[C@H](CO[C@@H]7OC[C@H](O)[C@H](O)[C@H]7O)[C@@H](O)[C@H](O)[C@H]6NC(=O)/C=C/c6ccc(OCc7ccccc7)cc6)C(C)(C)[C@@H]5CC[C@]43C)[C@@H]2C1
[2]
  IC50: > 50 µM
MCF7
  IC50: > 50 µM
[3]
  IC50: 23.8 µM
A549
  IC50: > 50 µM
HeLa
  IC50: > 50 µM
HepG2
  IC50: > 50 µM

## CC(=O)N[C@H]1[C@H](O[C@H]2CC[C@]3(C)[C@H]4CC=C5[C@@H]6CC(C)(C)CC[C@]6(C(=O)O)CC[C@@]5(C)[C@]4(C)CC[C@H]3C2(C)C)O[C@H](CO)[C@@H](O)[C@@H]1O[C@@H]1O[C@H](CO)[C@H](O)[C@H](O)[C@H]1O [LOTOIDOSIDE E]
[1]
  IC50: 0.018 µM

## CC1(C)CC[C@]2(C(=O)O)CC[C@]3(C)C(=CC[C@@H]4[C@@]5(C)CC[C@H](O[C@@H]6O[C@H](CO[C@@H]7OC[C@H](O)[C@H](O)[C@H]7O)[C@@H](O)[C@H](O)[C@H]6NC(=O)/C=C/c6ccc(Cl)cc6)C(C)(C)[C@@H]5CC[C@]43C)[C@@H]2C1
[2]
  IC50: > 50 µM
MCF7
  IC50: > 50 µM
[3]
  IC50: > 50 µM
A549
  IC50: > 50 µM
HeLa
  IC50: > 50 µM
HepG2
  IC50: > 50 µM

## CC1(C)CC[C@]2(C(=O)O)CC[C@]3(C)C(=CC[C@@H]4[C@@]5(C)CC[C@H](O[C@@H]6O[C@H](CO[C@@H]7OC[C@H](O)[C@H](O)[C@H]7O)[C@@H](O)[C@H](O)[C@H]6NC(=O)/C=C/c6ccc(C(C)(C)C)cc6)C(C)(C)[C@@H]5CC[C@]43C)[C@@H]2C1
[2]
  IC50: > 50 µM
MCF7
  IC50: > 50 µM
[3]
  IC50: 13.6 µM
A549
  IC50: > 50 µM
HeLa
  IC50: 39.2 µM
HepG2
  IC50: > 50 µM

## CC1(C)CC[C@]2(C(=O)O)CC[C@]3(C)C(=CC[C@@H]4[C@@]5(C)CC[C@H](O[C@@H]6O[C@H](CO[C@@H]7OC[C@H](O)[C@H](O)[C@H]7O)[C@@H](O)[C@H](O)[C@H]6NC(=O)/C=C/c6ccccc6)C(C)(C)[C@@H]5CC[C@]43C)[C@@H]2C1
[2]
  IC50: > 50 µM
MCF7
  IC50: 45.2 µM
[3]
  IC50: 19.3 µM
A549
  IC50: > 50 µM
HeLa
  IC50: 40.2 µM
HepG2
  IC50: > 50 µM

## CC(=O)N[C@H]1[C@H](O[C@H]2CC[C@]3(C)[C@H]4CC=C5[C@@H]6CC(C)(C)CC[C@]6(C(=O)O)CC[C@@]5(C)[C@]4(C)CC[C@H]3C2(C)C)O[C@H](CO[C@@H]2OC[C@H](O)[C@H](O)[C@H]2O)[C@@H](O)[C@@H]1O
[2]
  IC50: 9.92 µM
MCF7
  IC50: 9.34 µM
[3]
  IC50: 16 µM
A549
  IC50: 5.27 µM
HeLa
  IC50: 5.27 µM
HepG2
  IC50: 10.3 µM

## CC1(C)CC[C@]2(C(=O)O)CC[C@]3(C)C(=CC[C@@H]4[C@@]5(C)CC[C@H](O[C@@H]6O[C@H](CO[C@@H]7OC[C@H](O)[C@H](O)[C@H]7O)[C@@H](O)[C@H](O)[C@H]6NC(=O)/C=C/c6ccc(Br)cc6)C(C)(C)[C@@H]5CC[C@]43C)[C@@H]2C1
[2]
  IC50: > 50 µM
MCF7
  IC50: > 50 µM
[3]
  IC50: 33.2 µM
A549
  IC50: > 50 µM
HeLa
  IC50: > 50 µM
HepG2
  IC50: > 50 µM
